Results as given in patent US8138166B2, “Method to induce fatty liver in animal” (Taipei Medical University, priority 2010, dated 2012).

Assays:
[1] = system: liver; assay: Liver histopathology (H&E staining) of SD rats fed high fat diet and injected with rotenone; assay type: in vivo; conditions: experimental group: 60% high fat diet + rotenone 2.5 mg/kg/day i.p., 8 weeks
Source text: (§1) SD rats are selected to use as the laboratory animals in the present embodiment. All SD rats are bred at the cages, and adequate feeds and water are given during the adaptive period and the experimental period. After the adaptive period, the SD rats are randomly divided into three groups concluding a control group, an experimental group, and a contrast group, and there are 6 SD rats in each group. In the control group, the SD rats are fed with AIN-93M diet. The SD rats in the experimental group are fed with the modified AIN-93M diet whose fat calorie is accounted for 60% of total calorie thereof, and the mitochondrial inhibitor (rotenone) is injected into the SD rats via an intraperitoneal injection once every two days. The dosage of the rotenone is about 2.5 mg/kg/day. The components of the diet and the fat percentage in the contrast group and the experimental group are the same. Normal saline is injected into the SD rats in the contrast group via the intraperitoneal injection to differentiate from the experimental group. After feeding 8 weeks, the SD rats in each group are sacrificed to collect arteria coeliaca blood and to obtain livers after perfusing 0.9% normal saline thereinto for determining the pathological analysis of the liver, the blood biochemical analysis and the liver biochemical analysis.
Livers of the SD rats in each group are all stained by H&E staining. […]

[2] = Visceral fat weight; assay type: in vivo, SD rats; conditions: experimental group: 60% high fat diet + rotenone 2.5 mg/kg/day i.p. once every two days, 8 weeks; epididymis and perirenal adipose tissue
Source text: as §1, with “analysis. […]” for “analysis.”

[3] = Blood biochemical analysis and liver function index; assay type: in vivo, SD rats; conditions: experimental group: 60% high fat diet + rotenone i.p., 8 weeks
Source text: as §1
The blood biochemical analyses of cholesterol, triglyceride, and non-esterified fatty acids are examined. The liver function indexes of aspartate aminotransferase (AST) and alanine aminotransferase (ALT) are also analyzed.

[4] = system: liver; assay: Liver biochemical analysis (liver lipids, TBARS, TNF-α, hydroxyproline); assay type: in vivo, SD rats; conditions: experimental group: 60% high fat diet + rotenone i.p., 8 weeks
Source text: as §1
The lipid extracts are obtained from the livers of the SD rats in each group to analyze the contents of total cholesterol, triglyceride, and non-esterified fatty acids, as shown below Table 2.
Additionally, if oxidative stress, such as reactive oxygen species (ROS), is increased in vivo, lipid peroxides may be increased. Because the half life of the ROS is shorter than that of the lipid peroxides, the lipid peroxides, such as thiobarbituric acid-reactive-substance (TBARS), are used as the oxidative stress index. The livers of the SD rats in each group are respectively prepared to obtain homogeneous liquids for analyzing the concentration of the TBARS by a fluorophotometer. […] The concentrations of the TBARS in the control group, the experimental group and the contrast group are respectively 0.51±0.05, 2.18±0.19 and 1.15±0.09 μM/mg protein. That means in the experimental group, the oxidative stress in the livers of the SD rats is highest.
In the NAFLD progression, when high oxidative stress is existed in a liver for a long time, inflammatory cytokines, such as tumor necrosis factor-alpha (TNF-α), are increased. After the SD rats are sacrificed, the concentration of the TNF-α is determined to analyze whether the inflammatory response is induced or not. […] The concentrations of TNF-α in the control group, the experimental group, and the contrast group are respectively 13.96±1.05, 21.34±0.77, and 19.51±1.11 pg/mg protein. Following the results as set forth, the livers of rats in the experimental group have the inflammatory response. […] But, once livers are existed in high oxidative stress, the liver injuries thereof from simple steatosis to necrosis or fibrosis are performed. Therefore, the collagen index (i.e. the fibrosis index), hydroxyproline, in the livers should be determined. The concentrations of the hydroxyproline in the control group, the experimental group, and the contrast group are 3.32±1.05, 6.68±0.77, and 4.05±1.11 μg/mg protein, respectively. It indicates the concentration of the hydroxyproline in the experimental group is higher than those of in the control group and the contrast group.

[5] = system: NADH cytochrome c reductase (NCCR), mitochondrial complex I and III; assay: NCCR activity in hepatocytes; assay type: in vivo, SD rats; conditions: experimental group: 60% high fat diet + rotenone i.p., 8 weeks
Source text: as §1
(§2) Rotenone is hydrophobic, and can diffuse to organelles including mitochondria. […]

[6] = system: succinate cytochrome c reductase (SCCR), mitochondrial complex II and III; assay: SCCR activity in hepatocytes; assay type: in vivo, SD rats; conditions: experimental group: 60% high fat diet + rotenone i.p., 8 weeks
Source text: as §1, §2

[7] = system: cytochrome c oxidase (CCO), mitochondrial complex IV; assay: CCO activity in hepatocytes; assay type: in vivo, SD rats; conditions: experimental group: 60% high fat diet + rotenone i.p., 8 weeks
Source text: as §1, §2

[8] = system: mitochondrial complex I; assay: Mitochondrial complex I activity inferred from NCCR and SCCR activity; assay type: in vivo, SD rats; conditions: experimental group: 60% high fat diet + rotenone i.p., 8 weeks; combined NCCR and SCCR results
Source text: as §1, §2

## C=C(C)[C@H]1Cc2c(ccc3c2O[C@@H]2COc4cc(OC)c(OC)cc4[C@@H]2C3=O)O1 [rotenone]
[1]
  cell morphology (H&E staining of liver): lipid drops and ballooning degeneration
[2]
  visceral fat weight: 51.28±3.41 grams
[3]
  ALT: 39.4 ± 2.61 IU/L
  AST: 90.1 ± 13.68 IU/L
  Cholesterol (blood): 73.4 ± 7.61 mg/dL
  Triglyceride (blood): 60.1 ± 10.15 mg/dL
[4]
  concentration of TNF-α: 21.34±0.77 pg/mg protein
[4]; collagen/fibrosis index
  concentration of hydroxyproline (liver): 6.68±0.77 μg/mg protein
[4]; liver homogenate, fluorophotometer
  concentration of TBARS (liver): 2.18±0.19 μM/mg protein
[4]; liver lipid extract
  Non-esterified fatty acids (liver): 5.02 ± 0.38 µmol/g
  Total cholesterol (liver): 131.74 ± 5.30 mg/dL
  Triglyceride (liver): 6.78 ± 0.55 mg/dL
[5]
  NCCR activity: 0.68 ± 0.26 nmol/cytochrome c reduced/min/mg protein
[6]
  SCCR activity: 0.51 ± 0.05 nmol/cytochrome c reduced/min/mg protein
[7]
  CCO activity: 5.57 ± 2.88 nmol/cytochrome c oxidized/min/mg protein
[8]
  mitochondrial complex I activity versus control group and contrast group: lower
